Source: patent publication US8481724B2, “Synthesis of 2,4-pyrimidinediamines” (Rigel Pharmaceuticals, Inc., priority 2009, dated 2013)

Columns and labels:
[1] = water solubility in aqueous buffer under physiological conditions; format: physicochemical; settings: prodrug versus parent compound of formula IV, same conditions
[2] = cited from earlier work

Row | Compound | solubility relative to compound of formula IV (times greater) [1] | solubility ([2]; aqueous buffer under physiological conditions (same conditions as formula IV)) | water solubility ([2]; aqueous buffer under physiological conditions) [µg/mL]
1 | COc1cc(Nc2ncc(F)c(Nc3ccc4c(n3)N(COP(=O)(O)O)C(=O)C(C)(C)O4)n2)cc(OC)c1OC [compound of formula II] | approximately 2000 times | greater than 5 mg/mL | 
2 | COc1cc(Nc2ncc(F)c(Nc3ccc4c(n3)NC(=O)C(C)(C)O4)n2)cc(OC)c1OC [compound of formula IV] |  |  | 1 to 2
